Patent US10864269B2, “Therapeutic combinations comprising anti-CD73 antibodies and uses thereof” (MedImmune Limited, priority 2014, dated 2020)

Legend:
[1] = system: CD4+CD25− T cell proliferation; experiment: AMP-mediated suppression of CD4+CD25− T cell proliferation; format: cell-based; details: primary human CD4+CD25− T cells, 100 or 200 μM AMP, 72 hours, CFSE
Method: In an assay for AMP-mediated T-cell suppression, primary human CD4^+ T cells depleted of CD25^+ cells were isolated from the content of leukocyte cones and used as effector cells; each cone was processed separately. Briefly, the content from a leukocyte cone was diluted in PBS, then layered over FICOLL-PAQUE® Plus (GE Healthcare, Chalfont St Giles, UK) and centrifuged at 400×g for 40 minutes with brakes turned off. Peripheral blood mononuclear cells (PBMC) were then isolated from the interface and washed with PBS by centrifugation at 200×g for 10 minutes. Supernatant was discarded and cells were suspended in PBS. Viable cells were determined, then pelleted at 350×g for 5 minutes and suspended in ROBOSEP buffer (Stem Cell, Grenoble, France) at a concentration of 5×10^7 per mL. […]
Isolated effector cells were labeled with CFSE probe (3 μM) using the CELLTRACE CFSE cell proliferation kit (Life Technologies, Paisley, UK) at a cell density of 1×10^6 cells per mL in PBS containing 0.1% BSA with an incubation period of 15 minutes at 37° C. […] Phen0203 hIgG1 was received as a ready-to-use formulation (Medlmmune, Gaithersburg, Md.) and was diluted in phosphate-buffered saline (PBS). R347 was received as a ready-to-use formulation (Medlmmune, Gaithersburg, Md.) and was diluted in PBS. […]

TNFα = experiment: Mixed leukocyte reaction, TNFα supernatant levels; format: cell-based; details: human mixed leukocyte reaction, 72 hours, 1 μM each agent
Method: (§1) The release of immune activating cytokines IFNγ and TNFα was evaluated in human mixed leukocyte cultures with anti-CD73 monoclonal antibody alone and in combination with an adenosine receptor inhibitor (A2ARi). The levels of IFNγ and TNFα in supernatants were detected by ELISA. Human peripheral blood lymphocytes were set up in a mixed leukocyte reaction for 72 hours and stimulated with anti-CD73 alone, A2AR inhibitor alone or both agents. Peripheral blood mononuclear cells from pairwise combinations of 8 donors were incubated for 72 hours in the presence of 1 μM anti-CD73 antibody MEDI9447 and 1 μM A2ARi SCH58261, either alone or in combination. After incubation, supernatant levels of Interferon gamma (IFNγ) and Tumor Necrosis Factor Alpha (TNFα) were measured using a Mesoscale ELISA plate. The levels of IFNγ and TNFα observed after incubation with each compound were plotted as duplicate fold-control values using levels from incubation with an isotype control antibody as a negative control.

IFNγ = experiment: Mixed leukocyte reaction, IFNγ supernatant levels; format: cell-based; details: human mixed leukocyte reaction, 72 hours, 1 μM each agent
Method: as §1

[2] = system: CT26 murine colon carcinoma; experiment: CT26 syngeneic tumor model, MEDI9447 mIgG1 with anti-PD-1; format: in vivo, Balb/C mice
Method: Syngeneic tumors were established by subcutaneous (SC) injection of 0.1 ml of 5×10^6 CT26 cells/ml suspended in HBSS into the right flanks of 8- to 10-week-old animals.
Tumors were measured by caliper and the volumes of tumors (TV) were calculated using the following formula: TV=(L×W^2)/2 (1)
Mice were randomized into groups based on bodyweight. There were no animal substitutions. 60 female Balb/c mice were used in this study.
Animals were randomly assigned into 6 groups. Animals were administered MEDI9447(mIgG1). Test articles were administered by intraperitoneal (IP) injection twice weekly starting on Day 3.
CT26 murine colon carcinoma were implanted into syngeneic Balb/C mice and treated with anti-CD73 (MEDI9447 mIgG1; 10 mg/kg), anti-PD1 (0.5 mg/kg) or the combination (10 mg/kg anti-CD73 and 0.5 mg/kg anti-PD1). […] Tumor volumes from each group of animals were plotted for individual animals out to study day 40. No control group mice were tumor free by the end of the 40 day study period (See FIG. 6). […] None of the control group mice were tumor free by the end of the study. CT26 tumors were measured in mice treated with anti-CD73 (MEDI9447 mIgG1), anti-PD1 or the combination of anti-CD73 and anti-PD1. Mice were measured until study day 40, and humanely sacrificed once tumors reached 2000 mm^3. […] Median survival increased from 25 and 33 days (anti-CD73 and anti-PD1, respectively) compared to “undefined” at day 40 for the combination.

[3] = study day 40, anti-CD73 10 mg/kg, anti-PD1 0.5 mg/kg, ip 2x weekly, 4 doses

Nc1ncnc2c1ncn2[C@@H]1O[C@H](COP(=O)(O)CP(=O)(O)O)[C@@H](O)[C@H]1O [APCP, adenosine 5′-(α,β-methylene)diphosphate]
T cell proliferation in the presence of AMP [1]: increase of T-cell proliferation

Nc1nc2c(cnn2CCc2ccccc2)c2nc(-c3ccco3)nn12 [SCH58261, reference compound]
TNFα supernatant levels / secretion (TNFα): capable of inducing
IFNγ supernatant levels (IFNγ): capable of inducing
T cell proliferation in the presence of AMP [1]: increase of T-cell proliferation

MEDI9447 mIgG1: anti-CD73 antibody MEDI9447 in murine IgG1 format
Median survival ([2]; CT26, followed until study day 40): 25 days
Survival [2, 3]: 10%
Tumor free mice [2, 3]: 10%
TNFα supernatant levels / secretion (TNFα): capable of inducing
IFNγ supernatant levels (IFNγ): capable of inducing
